Experimental findings from patent publication US20220168295A1, “RIMEGEPANT FOR CGRP RELATED DISORDERS” (Biohaven Pharmaceutical Ireland DAC, priority 2018, published 2022) are described below.

Each structure is given as a SMILES string.

The subject of data set [1] is subjects with Acute Migraines. The data set can be described thus: Study 302 (BHV3000-302) Phase 3 placebo-controlled trial, rimegepant 75 mg tablet, acute treatment of migraine: efficacy and safety. In kind it is in vivo, human. The procedure: Clinical Trial—BHV3000-302: Phase 3: Double-Blind, Randomized, Placebo-Controlled, Safety and Efficacy Trial of BHV-3000 (Rimegepant) for the Acute Treatment of Migraine (ClinicalTrials.gov Identifier: NCT03237845) A phase 3 clinical study was conducted with 1503 participants, as follows. The purpose of this study is to compare the efficacy of BHV-3000 (rimegepant) versus placebo in subjects with Acute Migraines • Study Type: Interventional (Clinical Trial) • Actual Enrollment: 1503 participants • Allocation: Randomized • Intervention Model: Parallel Assignment • Intervention Model Description: Double-blind to Sponsor, Investigator and Subject • Masking: Triple (Participant, Care Provider, Investigator) • Masking Description: Double-blind to Sponsor, Investigator and Subject • Primary Purpose: Treatment • Official Title: BHV3000-302: Phase 3: Double-Blind, Randomized, Placebo-Controlled, Safety and Efficacy Trial of BHV-3000 (Rimegepant) for the Acute Treatment of Migraine • Actual Study Start Date: Jul. 26, 2017 • Primary Completion Date: Jan. 25, 2018 • Study Completion Date: Jan. 31, 2018 [table] • 1. Pain Freedom of rimegepant (75 mg tablet) compared with placebo in the acute treatment of migraine will be measured using the number of evaluable subjects that report no pain at 2 hours post-dose. [Time Frame: Two hours post dose] • Pain will be measured on a 4 point Likert scale (0=none, 1=mild, 2=moderate, 3=severe) • 2. Freedom from the most bothersome symptom (MBS) of rimegepant (75 mg tablet) compared with placebo will be measured using the number of evaluable subjects that report the absence of their MBS at 2 hours post-dose. [Time Frame: Two hours post dose] • The MBS (nausea, phonophobia or photophobia) will measured using a binary scale (0=absent, 1=present). • 1. […] [Time Frame: 2 hours −24 hours post-dose] • Sustained Pain Freedom as measured by a 4 point numeric rating scale (None, Mild, Moderate, Severe) • 2. Rimegepant (75 mg tablet) compared to placebo by tabulating the number of subjects that report the absence of photophobia at 2 hours post-dose in the subset of subjects that reported the presence of photophobia at headache baseline. [Time Frame: 2 hours post-dose] • Freedom from Photophobia • 3. Rimegepant (75 mg tablet) compared to placebo by tabulating the number of subjects that report the absence of phonophobia at 2 hours post-dose in the subset of subjects that reported the presence of phonophobia at headache baseline. [Time Frame: 2 hours post-dose] • Freedom from Phonophobia • 4. To measure rimegepant (75 mg tablet) compared to placebo on Pain Relief, at 2 hours post-dose, that report a pain level of moderate or severe at baseline and then report a pain level of none or mild. [Time Frame: 2 hours post-dose] • Pain Relief as measured by a 4 point numeric rating scale (None, Mild, Moderate, Severe) • 5. Freedom from Nausea will by tabulating the number of subjects that report the absence of nausea at 2 hours post-dose in the subset of subjects that reported the presence of nausea at headache baseline. [Time Frame: 2 hours post-dose] • Freedom from Nausea • 6. To measure rimegepant (75 mg tablet) compared to placebo on the probability of requiring rescue medication will be assessed using the number of subjects that take rescue medication within […] administration of study medication (BHV3000 or placebo). [Time Frame: up to 24 hours post-dose] • Requiring Rescue Medication • 7. […] [Time Frame: 2 hours-48 hours post-dose] • Sustained Pain Freedom as measured by a 4 point numeric rating scale (None, Mild, Moderate, Severe) • 8. […] [Time Frame: 2 hours-24 hours post-dose] • Sustained Pain Relief as measured by a 4 point numeric rating scale (None, Mild, Moderate, Severe) • 9. […] [Time Frame: 2 hours-48 hours post-dose] • Sustained Pain Relief as measured by a 4 point numeric rating scale (None, Mild, Moderate, Severe) • 10. […]

Data set [2] can be described thus: Pooled liver function test (LFT) profile, Study 301 and Study 302. The class given is in vivo, human. The conditions noted are these: pooled Study 301 and 302; n = 1089. The protocol: (§1) In a double-blind, randomized, placebo-controlled, multicenter study (Study 301, NCT03235479) adults 3.8 years of age with at least a 1-year history of ICHD 3-beta migraine were eligible to participate. Following a 3- to 28-day screening period, subjects were randomized to receive rimegepant 75 mg or matching placebo and instructed to treat a single migraine attack with 1 dose of the blinded study drug (rimegepant or placebo) when headache pain reached moderate or severe intensity. The coprimary endpoints were pain freedom at 2 hours postdose and freedom from the most bothersome symptom (MBS) at 2 hours postdose. Safety assessments included adverse events (AEs), ECGs, vital signs, physical measurements, and routine laboratory tests, including assessment of liver function. Unless stated otherwise, values presented are mean±SD.
as §1, with “302, NCT03237845)” for “301, NCT03235479)”, “≥18” for “3.8”

Turning to `N[C@@H]1c2cccnc2[C@H](OC(=O)N2CCC(n3c(=O)[nH]c4ncccc43)CC2)CC[C@H]1c1cccc(F)c1F` [Rimegepant, [(5S,6S,9R)-5-amino-6-(2,3-difluorophenyl)-6,7,8,9-tetrahydro-5H-cyclohepta[b]pyridin-9-yl] 4-(2-oxo-3H-imidazo[4,5-b]pyridin-1-yl)piperidine-1-carboxylate], in data set [1], the “SAEs related to the study drug” value is on record as “No SAEs were determined to be related to the study drug” and the “Transaminase level greater than 3 times ULN, subjects” value is recorded as “No subject”. Also, the “Adverse event urinary tract infection, incidence” value in data set [1] (8/543) came out at 1.5%. Moreover, the “Adverse event nausea, incidence” value in data set [1] (10/543) was determined as 1.8%. For the same compound, the “Serum ALT or AST levels greater than ULN, subjects” value in data set [1] (13/543) came out at 2.4%. Further, the “Proportion of patients achieving normal function at 2 hours (functional disability) versus placebo” value in data set [1] (P<0.0001) is recorded as “greater proportion”. Besides, the “Serious AEs (SAEs), number of subjects” value in data set [1] (back pain) is 1 subject. Moreover, in data set [2], the “ALT >3x ULN, subjects n (%)” value is 1 (0.1%) n (%); the “ALT >5x ULN, subjects” value is given as 0; the “ALT >10x ULN, subjects” value worked out at 0; the “ALT >20x ULN, subjects” value is given as 0. In data set [2], the “ALT >ULN, subjects n (%)” value is on record as 22 (2.0%) n (%); the “AST >3x ULN, subjects n (%)” value is 1 (0.1%) n (%); the “AST >5x ULN, subjects” value was found to be 0; the “AST >10x ULN, subjects” value was 0. In data set [2], the “AST >20x ULN, subjects” value is given as 0 and the “AST >ULN, subjects n (%)” value was 12 (1.1%) n (%).
